In PMC6992764 (Nature Communications, 2020):

Target: T1, Full-length FROUNT protein (Homo sapiens, UniProt Q9BW27)
T1 construct: made in house
T1 sequence (Q9BW27 1-656): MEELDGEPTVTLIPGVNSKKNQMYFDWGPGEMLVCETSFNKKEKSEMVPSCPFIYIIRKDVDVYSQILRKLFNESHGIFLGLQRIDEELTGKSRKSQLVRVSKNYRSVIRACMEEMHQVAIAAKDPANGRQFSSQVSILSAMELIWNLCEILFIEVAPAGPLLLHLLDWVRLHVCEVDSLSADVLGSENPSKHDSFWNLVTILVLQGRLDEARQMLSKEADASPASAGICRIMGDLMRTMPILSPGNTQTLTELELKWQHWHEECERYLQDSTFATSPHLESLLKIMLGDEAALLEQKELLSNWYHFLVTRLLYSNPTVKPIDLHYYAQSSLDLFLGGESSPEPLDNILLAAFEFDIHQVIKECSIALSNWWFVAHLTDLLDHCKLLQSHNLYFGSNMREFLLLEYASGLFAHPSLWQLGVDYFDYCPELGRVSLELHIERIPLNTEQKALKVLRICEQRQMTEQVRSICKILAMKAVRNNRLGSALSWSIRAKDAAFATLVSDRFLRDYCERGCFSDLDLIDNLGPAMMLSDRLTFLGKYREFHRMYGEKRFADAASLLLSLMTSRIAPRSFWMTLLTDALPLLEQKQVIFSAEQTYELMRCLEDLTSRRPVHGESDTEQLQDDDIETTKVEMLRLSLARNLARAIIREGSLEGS
Test: Surface plasmon resonance binding to FROUNT
Conditions: SPR, concentration-dependent
Procedure: Interactions between FROUNT and library compounds were analyzed by surface plasmon resonance using a Biacore T100 (GE Healthcare). Full-length FROUNT protein or the FROUNT-binding region of CCR2 was immobilized on the CM5 sensor chip[56]. […] The resonance unit (RU) was measured during the binding and washing periods, and the binding kinetics were analyzed. Solvent correction with DMSO was performed using Biacore T100 evaluation software.

binding to FROUNT protein: directly binds
Structure (SMILES): CCN(CC)C(=S)SSC(=S)N(CC)CC [DSF, disulfiram]
